Measured values: patent US20230201290A1, “TGF-BETA INHIBITION, AGENTS AND COMPOSITION THEREFOR” (GMP BIOTECHNOLOGY LIMITED, priority 2020, published 2023)

Experiments:
[1] = test system: advanced pancreatic cancer; test: Phase I/II study P001: patients with pancreatic cancer; assay type: in vivo, human
Description: P001 is a completed Phase I/II dose escalation study. Primary objective is the determination of the MTD as well as the DLT of 2 cycles as core treatment and up to 8 optional extension cycles of trabedersen administered i.v. for 4 or 7 d every other week, as described in the following. The study followed a classical cohort design with 3 evaluable patients per cohort. Patients treated with the 1st schedule received trabedersen continuously for 7 d, followed by a treatment-free interval of 7 d for each treatment cycle (7-d-on, 7-d-off). After the MTD had been reached for this schedule, a 2nd schedule of 4 d trabedersen administration, followed by a treatment-free interval of 10 d for each treatment cycle was started (4-d-on, 10-d-off). In this treatment schedule the MTD has not been reached.
Trabedersen was administered as i.v. continuous infusion for 4 or 7 days every other week via an implanted subcutaneous port system connected to a portable pump and with a flow rate of 0.8 mL/h. The core treatment consisted of 2 treatment cycles. Up to 8 optional extension cycles were administered in case of clinical benefit.
The overall survival is calculated for all patients as the survival time from the onset of treatment with study medication to death due to any cause and analyzed with the Kaplan-Meier method.
Altogether 21 patients with pancreatic cancer were treated during dose escalation.
There was no clear dose-response relationship, neither in the 7-days-on, 7-days-off schedule nor in the 4-days-on, 10-days-off schedule. A similar pattern is seen when the 5 patients with malignant melanoma and 5 patients with colorectal cancer treated during dose-escalation are also included.

With “cggcatgtct attttgta (antisense CGGCATGTCTATTTTGTA; chemistry not given here) [OT-101]” the mOS ([1]; 2nd-line therapy, independent of dose and schedule) was 8.9 months, the mOS ([1]; 2nd-line, 140 mg/m^2/day 4-on/10-off, no subsequent chemotherapy) was 2.6 months and the mOS ([1]; 2nd-line, 140 mg/m^2/day 4-on/10-off, with subsequent chemotherapy) was 16.9 months. For the same substance, the mOS ([1]; 2nd-line, 140 mg/m^2/day, 4-days-on, 10-days-off) was 14.5 months, the “Median Overall Survival, Patients with pancreatic cancer” value (shortened to “Median Overall Survival, Patients”) ([1]; 4-days-on, 10-days-off, 140 mg/m^2/day) was 14.5 months and the “Median Overall Survival, Patients” value ([1]; 4-days-on, 10-days-off, 140 mg/m^2/day (additional patients)) was 3.3 months. The “Median Overall Survival, Patients” value ([1]; 4-days-on, 10-days-off, 190 mg/m^2/day) was 6.2 months, the “Median Overall Survival, Patients” value ([1]; 4-days-on, 10-days-off, 250 mg/m^2/day) was 7.3 months and the “Median Overall Survival, Patients” value ([1]; 4-days-on, 10-days-off, 330 mg/m^2/day) was 2.4 months. For the same substance, the “Median Overall Survival, Patients” value ([1]; 7-days-on, 7-days-off, 40 mg/m^2/day) was 6.9 months, the “Median Overall Survival, Patients” value ([1]; 7-days-on, 7-days-off, 80 mg/m^2/day) was 4.6 months and the “Median Overall Survival, Patients” value ([1]; 7-days-on, 7-days-off, 160 mg/m^2/day) was 3.9 months. The “Median Overall Survival, Patients” value ([1]; 7-days-on, 7-days-off, 240 mg/m^2/day) was 5.5 months, the mOS ([1]; all 35 pancreatic carcinoma patients, independent of dose and schedule) was 4.9 months and the mOS ([1]; dose escalation, 4-days-on, 10-days-off schedule) was 9.3 months. The mOS ([1]; dose escalation, 7-days-on, 7-days-off schedule) was 5.7 months, the “EC50: 50% effective antiviral concentration” value (SARS-CoV (Urbani strain); SARS-CoV (Urbani strain), Vero 76, CPE neutral red, day 5) was 7.6 µg/mL and the “SI (CC50/EC50)” value (SARS-CoV (Urbani strain); SARS-CoV, Vero 76 cells) was >38.
